Two compounds from patent US8933123B2, “Polymorphic forms of O-desmethyl-venlafaxine succinate” (Cadila Healthcare Limited, priority 2010, dated 2015) can be followed below.

Molecules are shown by their SMILES.

This data set is described as follows: Storage stability of packed crystalline forms (water content and polymorphic conversion by X-ray powder diffraction). Format: physicochemical. The text has this:
The crystalline form of O-desmethyl-venlafaxine succinate obtained in example-5 or example-6 were stored under nitrogen atmosphere and packed in a non-permeable bag tied with a thread, keeping primary packing inside a black color polyethylene bag containing oxygen busters and sealing it, placing above the non-permeable bag inside a triple laminated bag containing oxygen busters and sealing it, and placing the sealed triple laminated bag inside a closed high density polyethylene (HDPE) container.

[1] abbreviates: storage for 3 months at 25° C. and a relative humidity of 60%.
Setting [2] is: storage for 3 months at 40° C. and a relative humidity of 75%.

Take `CN(C)CC(c1ccc(O)cc1)C1(O)CCCCC1.O=C(O)CCC(=O)O` (centres unmarked) [Form “Z”, O-desmethyl-venlafaxine succinate]: the “crystalline Form-I or Form-II detected by X-ray powder diffraction after storage” value under setting [1] is “no detectable amount of crystalline Form-I or Form-II” and the “crystalline Form-I or Form-II detected by X-ray powder diffraction after storage” value under setting [2] was “no detectable amount of crystalline Form-I or Form-II”. For the same compound, the “water content after storage” value is reported as ≤ 3.0% under setting [1] and ≤ 3.0% under setting [2].
With `CN(C)CC(c1ccc(O)cc1)C1(O)CCCCC1.O=C(O)CCC(=O)O` (centres unmarked) [Form “Z1”, O-desmethyl-venlafaxine succinate], under setting [1], the “crystalline Form-I or Form-II detected by X-ray powder diffraction after storage” value is listed as “no detectable amount of crystalline Form-I or Form-II” and the “water content after storage” value was ≤ 1.5%. Moreover, under setting [2], the “crystalline Form-I or Form-II detected by X-ray powder diffraction after storage” value is “no detectable amount of crystalline Form-I or Form-II” and the “water content after storage” value is ≤ 1.5%.
